Test results as given in patent US20250282768A1 (Janssen Pharmaceutica NV, priority 2022, published 2025).

Test system: p-IKKa levels in L363 (NIK translocated multiple myeloma) cells
Experiment: Assay 2: Effect of compounds on p-IKKa levels in L363 (NIK translocated multiple myeloma) cells
Format: cell-based
Settings: Homo sapiens, L-363, 6 h, read-out: Assay 2 IC50 (nM), p-IKKa (Ser 176/180) in BAFF stimulated L363 cells with MG132, 6 h; average if tested more than once
Summary of the method: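 Read-out is p-IKKa Ser176/180 by AlphaLISA SureFire in lysates. Cells were BAFF-primed (250 ng/ml) overnight or left unstimulated, then exposed 6 h at 37 °C to compound with MG132 (10 μM), 0.3% DMSO. IC50 from sigmoidal curve fit, normalized between stimulated and unstimulated controls.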

Row | SMILES | IC50 [nM]
1 | CN1CC[C@@](O)(c2cc(-c3cccc(-c4ccnc(Nc5nn(C)c6ncccc56)n4)c3)no2)C1=O [Example 421, (R)-3-Hydroxy-1-methyl-3-(3-(3-(2-((1-methyl-1H-pyrazolo[3,4-b]pyridin-3-yl)amino)pyrimidin-4-yl)phenyl)isoxazol-5-yl)pyrrolidin-2-one] | > 500
2 | CN1CC[C@@](O)(c2cc(-c3cccc(-c4ccnc(Nc5nn(C)c6nccnc56)n4)c3)no2)C1=O [Example 422, (R)-3-Hydroxy-1-methyl-3-(3-(3-(2-((1-methyl-1H-pyrazolo[3,4-b]pyrazin-3-yl)amino)pyrimidin-4-yl)phenyl)isoxazol-5-yl)pyrrolidin-2-one] | > 500
3 | CN1CC[C@@](O)(c2cc(-c3cccc(-c4nc(Nc5cnn(C)c5)ncc4F)c3)no2)C1=O [Example 423, (R)-3-(3-(3-(5-Fluoro-2-((1-methyl-1H-pyrazol-4-yl)amino)pyrimidin-4-yl)phenyl)isoxazol-5-yl)-3-hydroxy-1-methylpyrrolidin-2-one] | > 500
4 | CN1CC[C@@](O)(c2cc(-c3cccc(-c4nc(Nc5nn(C)cc5C#N)ncc4F)c3)no2)C1=O [Example 424, (R)-3-((5-Fluoro-4-(3-(5-(3-hydroxy-1-methyl-2-oxopyrrolidin-3-yl)isoxazol-3-yl)phenyl)pyrimidin-2-yl)amino)-1-methyl-1H-pyrazole-4-carbonitrile] | > 500
5 | CN1CC[C@@](O)(c2cc(-c3cccc(-c4nc(Nc5ccn(C)n5)ncc4F)c3)no2)C1=O [Example 425, (R)-3-(3-(3-(5-Fluoro-2-((1-methyl-1H-pyrazol-3-yl)amino)pyrimidin-4-yl)phenyl)isoxazol-5-yl)-3-hydroxy-1-methylpyrrolidin-2-one] | > 500
6 | CN1CC[C@@](O)(c2cc(-c3cccc(-c4ccnc(Nc5ccn(C)n5)n4)c3F)no2)C1=O [Example 426, (R)-3-(3-(2-Fluoro-3-(2-((1-methyl-1H-pyrazol-3-yl)amino)pyrimidin-4-yl)phenyl)isoxazol-5-yl)-3-hydroxy-1-methylpyrrolidin-2-one] | > 500
7 | CN1CC[C@@](O)(c2cc(-c3cccc(-c4ccnc(Nc5cnn(C)c5)n4)c3F)no2)C1=O [Example 427, (R)-3-(3-(2-Fluoro-3-(2-((1-methyl-1H-pyrazol-4-yl)amino)pyrimidin-4-yl)phenyl)isoxazol-5-yl)-3-hydroxy-1-methylpyrrolidin-2-one] | > 500
8 | CN(C)Cc1cc(Nc2nccc(-c3cccc(-c4cc([C@]5(O)CCN(C)C5=O)on4)n3)n2)nn1C [Example 428, (R)-3-(3-(6-(2-((5-((Dimethylamino)methyl)-1-methyl-1H-pyrazol-3-yl)amino)pyrimidin-4-yl)pyridin-2-yl)isoxazol-5-yl)-3-hydroxy-1-methylpyrrolidin-2-one] | 50 to 500
9 | CN1CC[C@@](O)(c2cc(-c3cccc(-c4ccnc(Nc5cc6n(n5)CCNC6)n4)n3)no2)C1=O [Example 430, (R)-3-Hydroxy-1-methyl-3-(3-(6-(2-((4,5,6,7-tetrahydropyrazolo[1,5-a]pyrazin-2-yl)amino)pyrimidin-4-yl)pyridin-2-yl)isoxazol-5-yl)pyrrolidin-2-one] | 50 to 500
10 | CN1CC[C@@](O)(c2cc(-c3cccc(-c4ccnc(Nc5cc6n(n5)CCN(CC(F)(F)F)C6)n4)n3)no2)C1=O [Example 431, (R)-3-Hydroxy-1-methyl-3-(3-(6-(2-((5-(2,2,2-trifluoroethyl)-4,5,6,7-tetrahydropyrazolo[1,5-a]pyrazin-2-yl)amino)pyrimidin-4-yl)pyridin-2-yl)isoxazol-5-yl)pyrrolidin-2-one] | 50 to 500
11 | CN1CC[C@@](O)(c2cc(-c3cccc(-c4ccnc(Nc5cc6n(n5)CCOC6)n4)n3)no2)C1=O [Example 432, (R)-3-(3-(6-(2-((6,7-Dihydro-4H-pyrazolo[5,1-c][1,4]oxazin-2-yl)amino)pyrimidin-4-yl)pyridin-2-yl)isoxazol-5-yl)-3-hydroxy-1-methylpyrrolidin-2-one] | < 50
12 | CN1CC[C@@](O)(c2cc(-c3cccc(-c4ccnc(Nc5cnn6c5CN(CC5CC5)CC6)n4)n3)no2)C1=O [Example 433, (R)-3-(3-(6-(2-((5-(Cyclopropylmethyl)-4,5,6,7-tetrahydropyrazolo[1,5-a]pyrazin-3-yl)amino)pyrimidin-4-yl)pyridin-2-yl)isoxazol-5-yl)-3-hydroxy-1-methylpyrrolidin-2-one] | < 50
13 | CN1CC[C@@](O)(c2cc(-c3cccc(-c4ccnc(Nc5cc(CN6CCOCC6)n(C)n5)n4)n3)no2)C1=O [Example 434, (R)-3-Hydroxy-1-methyl-3-(3-(6-(2-((1-methyl-5-(morpholinomethyl)-1H-pyrazol-3-yl)amino)pyrimidin-4-yl)pyridin-2-yl)isoxazol-5-yl)pyrrolidin-2-one] | 50 to 500
14 | CN1CC[C@@](O)(c2cc(-c3cccc(-c4ccnc(NCCC(F)(F)F)n4)n3)no2)C1=O [Example 435, (R)-3-Hydroxy-1-methyl-3-(3-(6-(2-((3,3,3-trifluoropropyl)amino)pyrimidin-4-yl)pyridin-2-yl)isoxazol-5-yl)pyrrolidin-2-one] | 50 to 500
15 | CN1CC[C@@](O)(c2cc(-c3cccc(-c4ccnc(N[C@H]5CCOC5)n4)n3)no2)C1=O [Example 436, (R)-3-Hydroxy-1-methyl-3-(3-(6-(2-(((S)-tetrahydrofuran-3-yl)amino)pyrimidin-4-yl)pyridin-2-yl)isoxazol-5-yl)pyrrolidin-2-one] | 50 to 500
16 | CN1CC[C@@](O)(c2cc(-c3cccc(-c4ccnc(NC5CC(F)(F)C5)n4)n3)no2)C1=O [Example 439, (R)-3-(3-(6-(2-((3,3-Difluorocyclobutyl)amino)pyrimidin-4-yl)pyridin-2-yl)isoxazol-5-yl)-3-hydroxy-1-methylpyrrolidin-2-one] | 50 to 500
17 | COC[C@H](C)Nc1nccc(-c2cccc(-c3cc([C@]4(O)CCN(C)C4=O)on3)n2)n1 [Example 440, (R)-3-Hydroxy-3-(3-(6-(2-(((S)-1-methoxypropan-2-yl)amino)pyrimidin-4-yl)pyridin-2-yl)isoxazol-5-yl)-1-methylpyrrolidin-2-one] | 50 to 500
18 | C[C@H](Nc1nccc(-c2cccc(-c3cc([C@]4(O)CCN(C)C4=O)on3)n2)n1)C1CC1 [Example 441, (R)-3-(3-(6-(2-(((S)-1-Cyclopropylethyl)amino)pyrimidin-4-yl)pyridin-2-yl)isoxazol-5-yl)-3-hydroxy-1-methylpyrrolidin-2-one] | > 500
19 | CN1CC[C@@](O)(c2cc(-c3cccc(-c4ccnc(NC5(C)CC5)n4)n3)no2)C1=O [Example 442, (R)-3-Hydroxy-1-methyl-3-(3-(6-(2-((1-methylcyclopropyl)amino)pyrimidin-4-yl)pyridin-2-yl)isoxazol-5-yl)pyrrolidin-2-one] | 50 to 500
20 | CN1CC[C@@](O)(c2cc(-c3cccc(-c4ccnc(NC5(C6CC6)CC5)n4)n3)no2)C1=O [Example 443, (R)-3-(3-(6-(2-([1,1′-Bi(cyclopropan)]-1-ylamino)pyrimidin-4-yl)pyridin-2-yl)isoxazol-5-yl)-3-hydroxy-1-methylpyrrolidin-2-one] | 50 to 500
21 | CN1CC[C@@](O)(c2cc(-c3cccc(-c4ccnc(Nc5cnn6c5OCC(C)(C)C6)n4)n3)no2)C1=O [Example 444, (R)-3-(3-(6-(2-((6,6-Dimethyl-6,7-dihydro-5H-pyrazolo[5,1-b][1,3]oxazin-3-yl)amino)pyrimidin-4-yl)pyridin-2-yl)isoxazol-5-yl)-3-hydroxy-1-methylpyrrolidin-2-one] | < 50
22 | CN1CC[C@@](O)(c2cc(-c3cccc(-c4ccnc(NC5CC(C(F)(F)F)C5)n4)n3)no2)C1=O (stereo partly drawn) [Example 445, (R)-3-Hydroxy-1-methyl-3-(3-(6-(2-((3-(trifluoromethyl)cyclobutyl)amino)pyrimidin-4-yl)pyridin-2-yl)isoxazol-5-yl)pyrrolidin-2-one] | > 500
23 | CN1CC[C@@](O)(c2cc(-c3cccc(-c4ccnc(NC5CSC5)n4)n3)no2)C1=O [Example 446, (R)-3-Hydroxy-1-methyl-3-(3-(6-(2-(thietan-3-ylamino)pyrimidin-4-yl)pyridin-2-yl)isoxaozl-5-yl)pyrrolidin-2-one] | 50 to 500
24 | CN1CC[C@@](O)(c2cc(-c3cccc(-c4ccnc(NC5CCN(S(=O)(=O)C6CC6)CC5)n4)n3)no2)C1=O [Example 447, (R)-3-(3-(6-(2-((1-(Cyclopropylsulfonyl)piperidin-4-yl)amino)pyrimidin-4-yl)pyridin-2-yl)isoxazol-5-yl)-3-hydroxy-1-methylpyrrolidin-2-one] | 50 to 500
25 | CO[C@@H]1CCC[C@H](Nc2nccc(-c3cccc(-c4cc([C@]5(O)CCN(C)C5=O)on4)n3)n2)C1 [Example 449, (R)-3-Hydroxy-3-(3-(6-(2-(((1S,3R)-3-methoxycyclohexyl)amino)pyrimidin-4-yl)pyridin-2-yl)isoxazol-5-yl)-1-methylpyrrolidin-2-one] | 50 to 500
26 | CN1CC[C@@](O)(c2cc(-c3cccc(-c4ccnc(N[C@H]5CCC[C@@H](O)C5)n4)n3)no2)C1=O [Example 450, (R)-3-Hydroxy-3-(3-(6-(2-(((1S,3R)-3-hydroxycyclohexyl)amino)pyrimidin-4-yl)pyridin-2-yl)isoxazol-5-yl)-1-methylpyrrolidin-2-one] | 50 to 500
27 | CN1CC[C@@](O)(c2cc(-c3cccc(-c4ccnc(NC5CCC(C(F)(F)F)CC5)n4)n3)no2)C1=O (stereo partly drawn) [Example 451, (R)-3-Hydroxy-1-methyl-3-(3-(6-(2-((4-(trifluoromethyl)cyclohexyl)amino)pyrimidin-4-yl)pyridin-2-yl)isoxazol-5-yl)pyrrolidin-2-one] | > 500
28 | CN1CC[C@@](O)(c2cc(-c3cccc(-c4ccnc(NC5CCOCC5)n4)n3)no2)C1=O [Example 452, (R)-3-Hydroxy-1-methyl-3-(3-(6-(2-((tetrahydro-2H-pyran-4-yl)amino)pyrimidin-4-yl)pyridin-2-yl)isoxazol-5-yl)pyrrolidin-2-one] | 50 to 500
